ChEMBL document CHEMBL3351827, “Design, synthesis and evaluation of novel 5-phenylpyridin-2(1H)-one derivatives as potent reversible Bruton's tyrosine kinase inhibitors” (Bioorg Med Chem, 2015)
Calls of active or inactive are those of the source. The calls are words filed in the database; no cut-off is given here.

Columns and labels:
[1] = target: T1, Tyrosine-protein kinase BTK (Homo sapiens, UniProt Q06187); assay: Inhibition of BTK in human Ramos cells assessed as reduction in IgM-induced calcium influx incubated for 20 mins by Fluo-4 dye based fluorescence assay; assay type: cell-based
T1 sequence (Q06187 whole entry): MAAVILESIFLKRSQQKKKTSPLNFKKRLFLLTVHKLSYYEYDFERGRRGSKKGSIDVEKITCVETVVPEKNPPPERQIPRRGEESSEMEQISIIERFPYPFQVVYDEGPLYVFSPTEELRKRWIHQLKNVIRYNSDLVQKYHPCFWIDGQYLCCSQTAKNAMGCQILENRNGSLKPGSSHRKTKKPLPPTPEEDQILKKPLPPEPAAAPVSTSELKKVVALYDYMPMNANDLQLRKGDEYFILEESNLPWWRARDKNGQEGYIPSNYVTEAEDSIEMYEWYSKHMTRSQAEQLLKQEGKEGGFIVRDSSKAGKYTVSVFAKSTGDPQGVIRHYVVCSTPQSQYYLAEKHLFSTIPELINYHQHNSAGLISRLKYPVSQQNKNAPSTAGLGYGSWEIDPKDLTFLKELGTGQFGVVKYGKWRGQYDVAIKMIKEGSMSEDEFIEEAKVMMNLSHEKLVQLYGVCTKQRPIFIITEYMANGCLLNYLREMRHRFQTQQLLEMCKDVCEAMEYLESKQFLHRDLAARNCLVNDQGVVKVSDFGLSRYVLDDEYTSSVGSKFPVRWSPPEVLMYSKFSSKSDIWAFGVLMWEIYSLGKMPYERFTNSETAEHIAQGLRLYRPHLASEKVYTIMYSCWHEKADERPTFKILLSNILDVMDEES

[2] = target: T1, Tyrosine-protein kinase BTK; assay: Inhibition of BTK (unknown origin) using biotin-labeled peptide substrate incubated for 1 hr by TR-FRET based HTRF kinase assay
[3] = AUC in Sprague-Dawley rat at 1 mg/kg, iv measured during 2 mins to 24 hrs period post dose by LC/MS/MS method; assay type: ADME, organism-based; parameters: time 0.033-24 hr, dose 1 mg/kg, route intravenous; conditions: plasma
[4] = Clearance in Sprague-Dawley rat at 1 mg/kg, iv measured during 2 mins to 24 hrs period post dose by LC/MS/MS method; assay type: ADME, organism-based; parameters: dose 1 mg/kg, route intravenous; conditions: in vivo
[5] = Mean residence time (0 to t) in Sprague-Dawley rat at 2 mg/kg, po measured during 2 mins to 24 hrs period post dose by LC/MS/MS method; assay type: ADME, organism-based; parameters: dose 2 mg/kg, route oral; conditions: in vivo
[6] = Half life in Sprague-Dawley rat at 1 mg/kg, iv measured during 2 mins to 24 hrs period post dose by LC/MS/MS method; assay type: ADME, organism-based; parameters: dose 1 mg/kg, route intravenous; conditions: in vivo
[7] = Clearance in Sprague-Dawley rat at 2 mg/kg, po measured during 2 mins to 24 hrs period post dose by LC/MS/MS method; assay type: ADME, organism-based; parameters: dose 2 mg/kg, route oral; conditions: in vivo
[8] = Apparent volume of distribution in Sprague-Dawley rat at 1 mg/kg, iv measured during 2 mins to 24 hrs period post dose by LC/MS/MS method; assay type: ADME, organism-based; parameters: dose 1 mg/kg, route intravenous; conditions: in vivo, read-out: Vz
[9] = Oral bioavailability in Sprague-Dawley rat at 2 mg/kg measured during 2 mins to 24 hrs period post dose by LC/MS/MS method; assay type: ADME, organism-based; conditions: in vivo
[10] = system: Rattus norvegicus; assay: Inhibition of collagen-induced arthritis in Wistar rat assessed as reduction in disease progression at 20 mg/kg, po dosed for 13 days starting from day 14 post collagen challenge; assay type: functional, organism-based; parameters: dose 20 mg/kg
[11] = system: Rattus norvegicus; assay: Apparent volume of distribution in Sprague-Dawley rat at 2 mg/kg, po measured during 2 mins to 24 hrs period post dose by LC/MS/MS method; assay type: ADME, organism-based; parameters: dose 2 mg/kg, route oral; conditions: in vivo
[12] = Half life in Sprague-Dawley rat at 2 mg/kg, po measured during 2 mins to 24 hrs period post dose by LC/MS/MS method; assay type: ADME, organism-based; parameters: dose 2 mg/kg, route oral; conditions: in vivo
[13] = AUC in Sprague-Dawley rat at 2 mg/kg, po measured during 2 mins to 24 hrs period post dose by LC/MS/MS method; assay type: ADME, organism-based; parameters: time upper 24 hr, time lower 0.033 hr, dose 2 mg/kg, route oral; conditions: plasma
[14] = Mean residence time (0 to t) in Sprague-Dawley rat at 1 mg/kg, iv measured during 2 mins to 24 hrs period post dose by LC/MS/MS method; assay type: ADME, organism-based; parameters: dose 1 mg/kg, route intravenous; conditions: in vivo
[15] = Cmax in Sprague-Dawley rat at 2 mg/kg, po measured during 2 mins to 24 hrs period post dose by LC/MS/MS method; assay type: ADME, organism-based; parameters: dose 2 mg/kg, route oral; conditions: in vivo
[16] = Cmax in Sprague-Dawley rat at 1 mg/kg, iv measured during 2 mins to 24 hrs period post dose by LC/MS/MS method; assay type: ADME, organism-based; parameters: dose 1 mg/kg, route intravenous; conditions: in vivo
[17] = system: Rattus norvegicus; assay: Toxicity in Wistar rat model of collagen-induced arthritis assessed reduction in body weight at 6 and 20 mg/kg, po dosed for 13 days starting from day 14 post collagen challenge; assay type: organism-based; parameters: dose 20 mg/kg, route oral; conditions: in vivo, 312 h
[18] = organism: Rattus norvegicus; conditions: Wistar, 6 mg/kg
Description: Inhibition of collagen-induced arthritis in Wistar rat assessed as reduction in disease progression at 6 mg/kg, po dosed for 13 days starting from day 14 post collagen challenge

With Cc1c(NC(=O)c2ccc(C(C)(C)C)cc2)cccc1-c1cc(Nc2ccc(N3CCN(C)CC3)cn2)c(=O)n(C)c1 the IC50 [1] was > 5000 nM and the IC50 [2] was 875 nM.

Compound CN1CCN(c2ccc(Nc3cc(-c4cccc(-n5ccc6cc(C7CC7)cc(F)c6c5=O)c4)cn(C)c3=O)nc2)CC1 has an IC50 [1] of 472 nM and an IC50 [2] of 503 nM.

Work on CN1CCN(c2ccc(Nc3cc(-c4cccc(-n5ccc6ccccc6c5=O)c4CO)cn(C)c3=O)nc2)CC1 yielded an IC50 [2] of 1030 nM.

CN1CCN(c2ccc(Nc3cc(-c4cccc(-n5ccc6cc(C7CC7)cc(F)c6c5=O)c4CO)cn(C)c3=O)nc2)CC1 gave an AUC [3] of 404 ng·h/mL, a clearance [4] of 41.2 mL/min/kg and an MRT last [5] of 9.31 h. It also gave a half-life [6] of 14.1 h, a CL/F [7] of 84.5 mL/min/kg and a Vd [8] of 50.5 L/kg. For the same compound, the bioavailability [9] was 49.9%, the inhibition [10] was “Active” and the Vz [11] was 86.69 L/kg. It also gave a half-life [12] of 11.5 h, an AUC [13] of 403 ng·h/mL and an MRT last [14] of 6.56 h. For the same compound, the Cmax [15] was 34.8 ng/mL and the Cmax [16] was 220 ng/mL.

For Cn1cc(-c2cccc(-n3ccc4cc(C5CC5)cc(F)c4c3=O)c2CO)cc(Nc2ccc(C3CCN(C4COC4)CC3)cn2)c1=O, the IC50 [1] was 21 nM and the IC50 [2] was 20 nM.

For CN1CCN(c2ccc(Nc3cc(-c4cccc(-n5ccc6nc(C7CC7)ccc6c5=O)c4CO)cn(C)c3=O)nc2)CC1, the IC50 [1] was 3250 nM and the IC50 [2] was 564 nM.

In the case of CN1CCN(c2ccc(C(=O)Nc3cc(-c4cccc(-n5ccc6cc(C7CC7)cc(F)c6c5=O)c4CO)cn(C)c3=O)cc2)CC1, the IC50 [1] is reported as > 5000 nM and the IC50 [2] is reported as 818 nM.

Work on Cn1cc(-c2cccc(-n3ccc4cc(C5CC5)cc(F)c4c3=O)c2CO)cc(Nc2ccc(N3CCN(C(=O)C4CC4)CC3)cn2)c1=O yielded an IC50 [1] of 4360 nM and an IC50 [2] of 28 nM.

CN1CCN(c2ccc(Nc3cc(-c4cccc(-n5ccc6cc(N(C)C)ncc6c5=O)c4CO)cn(C)c3=O)nc2)CC1 showed an IC50 [1] of 1030 nM and an IC50 [2] of 431 nM.

Work on CN1CC(N2CCN(c3ccc(Nc4cc(-c5cccc(-n6ccc7cc(C8CC8)cc(F)c7c6=O)c5CO)cn(C)c4=O)nc3)CC2)C1 yielded an IC50 [1] of 33 nM and an IC50 [2] of 9 nM.

Work on Cc1c(-c2cc(Nc3ccc(N4CCN(C5COC5)CC4)cn3)c(=O)n(C)c2)cccc1-n1ccc2cc(C3CC3)cc(F)c2c1=O yielded an IC50 [1] of 171 nM and an IC50 [2] of 203 nM.

For CN1CCN(c2ccc(CNc3cc(-c4cccc(-n5ccc6cc(C7CC7)cc(F)c6c5=O)c4CO)cn(C)c3=O)cc2)CC1, the IC50 [2] was > 5000 nM.

In the case of Cc1c(-c2cc(Nc3ccc(N4CCN(C)CC4)cn3)c(=O)n(C)c2)cccc1-c1nc2cc(C(C)(C)C)ccc2[nH]1, the IC50 [2] is reported as > 5000 nM.

Cc1c(-c2cc(Nc3ccc(N4CCN(C)CC4)cn3)c(=O)n(C)c2)cccc1-n1ccc2cc(C3CC3)cc(F)c2c1=O showed an IC50 [1] of 254 nM and an IC50 [2] of 365 nM.

With Cc1c(Nc2ncnc3ccccc23)cccc1-c1c[nH]c(=O)c(Nc2ccc(N3CCN(C)CC3)cn2)c1C the IC50 [2] was > 5000 nM.

Work on CN1CCN(c2ccc(Nc3cc(-c4cccc(-n5ccc6cc(C7CC7)ccc6c5=O)c4CO)cn(C)c3=O)nc2)CC1 yielded an IC50 [1] of 115 nM and an IC50 [2] of 37 nM.

With Cc1c(-c2cc(Nc3ccc(N4CCN(C)CC4)cn3)c(=O)n(C)c2)cccc1N1C(=O)c2ccc(C(C)(C)C)cc2C1=O the IC50 [2] was > 5000 nM.

With Cn1cc(-c2cccc(-n3ccc4cc(C5CC5)cc(F)c4c3=O)c2CO)cc(Nc2ccc(N3CCN(C4COC4)CC3)cn2)c1=O the Activity [17] was “Non-toxic”, the AUC [3] was 1670 ng·h/mL and the clearance [4] was 7.83 mL/min/kg. The MRT last [5] was 8.78 h, the IC50 [1] was 8 nM and the half-life [6] was 13.6 h. The CL/F [7] was 13.5 mL/min/kg, the Vd [8] was 9.28 L/kg and the bioavailability [9] was 58.4%. The inhibition [10] was “Active”, the inhibition [18] was “Active” and the Vz [11] was 13.4 L/kg. It also gave an IC50 [2] of 16 nM, a half-life [12] of 11.5 h and an AUC [13] of 1950 ng·h/mL. The MRT last [14] was 6.48 h, the Cmax [15] was 170 ng/mL and the Cmax [16] was 1090 ng/mL.

With CN1CCN(c2ccc(Nc3cc(-c4cccc(-n5ccc6cc(C7CC7)ncc6c5=O)c4CO)cn(C)c3=O)nc2)CC1 the IC50 [1] was 124 nM and the IC50 [2] was 255 nM.
